Results published in BindingDB's records for doi:10.1111/j.2042-7158.1986.tb04590.x (1986).

Target: Sigma non-opioid intracellular receptor 1 (Cavia porcellus, UniProt Q60492)
Sequence (Q60492 whole entry): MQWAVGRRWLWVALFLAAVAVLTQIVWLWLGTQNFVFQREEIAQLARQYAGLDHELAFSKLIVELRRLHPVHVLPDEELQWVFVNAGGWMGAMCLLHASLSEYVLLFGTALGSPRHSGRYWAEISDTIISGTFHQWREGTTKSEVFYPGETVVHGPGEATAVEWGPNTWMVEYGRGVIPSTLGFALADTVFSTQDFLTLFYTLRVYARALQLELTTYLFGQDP

Ki [nM] | Compound
2000 | CNCCC=C1c2ccccc2CCc2ccccc21 [NORTRIPTYLINE]
605 | CN(C)CCCN1c2ccccc2Sc2ccc(C(F)(F)F)cc21 [TRIFLUPROMAZINE]
1470 | CN(C)CCCN1c2ccccc2Sc2ccc(Cl)cc21 [[3-(2-Chloro-phenothiazin-10-yl)-propyl]-dimethyl-amine(Chlorpromazine)]
> 10000 | Clc1cccc(Cl)c1N=C1NCCN1 [2-(2,6-dichloroanilino)-2-imidazoline]

Compound | Ki [nM]
CN(C)CCCN1c2ccccc2CCc2ccccc21 | 520
CN(C)CCC=C1c2ccccc2CCc2ccccc21 | 300
